Measured values from article PMC10033409, “Autoregulation of GPCR signalling through the third intracellular loop” (Nature, 2023).
Several values for one entry are separate records, joined by “and”; a condition that tells them apart may be missing. Identical values can stand only once. Counter-ions that a name gives are not always drawn. Like-named read-outs stand apart in the source and are kept apart here.

Test system: β2AR
Conditions: for competition binding curve vs isoproterenol (Extended Data Figure 3M), Fit / competition binding curve vs isoproterenol (Extended Data Figure 3L), Fit: fitted curve; for competition binding curve vs isoproterenol (Extended Data Figure 3L), Fit / competition binding curve vs isoproterenol (Extended Data Figure 3L): Wild-Type + Gs-Peptide
Description: Reactions were equilibrated, washed, and measured following the same procedure listed above for the radioligand antagonist-binding assay. […] Weighted averages of these IC50 values were used for comparison purposes and inhibition constant (Ki) calculations. […] Binding assays were performed in technical duplicates. Three biological replicates were collected with different membrane preparations for each replicate.

## CC(C)NCC(O)c1ccc(O)c(O)c1 (stereo not drawn) [Isoproterenol, isoproterenol (+)-bitartrate salt]
Sensor + Gs-peptide, Isoproterenol 1.00E-03 M
  competition binding curve vs isoproterenol (Extended Data Figure 3M), Fit: 1.12
Sensor + Gs-peptide, Isoproterenol 1.00E-03 M, replicates 1-3 and Average
  competition binding curve vs isoproterenol (Extended Data Figure 3M): 0.73 and -0.00169
Sensor + Gs-peptide, Isoproterenol 1.00E-04 M
  competition binding curve vs isoproterenol (Extended Data Figure 3M), Fit: 1.39
Sensor + Gs-peptide, Isoproterenol 1.00E-04 M, replicates 1-3 and Average
  competition binding curve vs isoproterenol (Extended Data Figure 3M): 1.06 and 1.58 and 0.34 and 1.27
Sensor + Gs-peptide, Isoproterenol 1.00E-05 M
  competition binding curve vs isoproterenol (Extended Data Figure 3M), Fit: 3.99
Sensor + Gs-peptide, Isoproterenol 1.00E-05 M, replicates 1-3 and Average
  competition binding curve vs isoproterenol (Extended Data Figure 3M): 5.22 and 6.17 and 4.29 and 5.19
Sensor + Gs-peptide, Isoproterenol 1.00E-06 M
  competition binding curve vs isoproterenol (Extended Data Figure 3M), Fit: 22.44
Sensor + Gs-peptide, Isoproterenol 1.00E-06 M, replicates 1-3 and Average
  competition binding curve vs isoproterenol (Extended Data Figure 3M): 22.22 and 23.42 and 21.91 and 21.33
Sensor + Gs-peptide, Isoproterenol 1.00E-07 M
  competition binding curve vs isoproterenol (Extended Data Figure 3M), Fit: 61.20
Sensor + Gs-peptide, Isoproterenol 1.00E-07 M, replicates 1-3 and Average
  competition binding curve vs isoproterenol (Extended Data Figure 3M): 61.19 and 63.45 and 61.62 and 58.48
Sensor + Gs-peptide, Isoproterenol 1.00E-08 M
  competition binding curve vs isoproterenol (Extended Data Figure 3M), Fit: 85.17
Sensor + Gs-peptide, Isoproterenol 1.00E-08 M, replicates 1-3 and Average
  competition binding curve vs isoproterenol (Extended Data Figure 3M): 85.29 and 86.69 and 86.58 and 82.61
Sensor + Gs-peptide, Isoproterenol 1.00E-09 M
  competition binding curve vs isoproterenol (Extended Data Figure 3M), Fit: 97.00
Sensor + Gs-peptide, Isoproterenol 1.00E-09 M, replicates 1-3 and Average
  competition binding curve vs isoproterenol (Extended Data Figure 3M): 96.71 and 101.87 and 95.55 and 92.70
Sensor + Gs-peptide, Isoproterenol 1.00E-10 M
  competition binding curve vs isoproterenol (Extended Data Figure 3M), Fit: 99.03
Sensor + Gs-peptide, Isoproterenol 1.00E-10 M, replicates 1-3 and Average
  competition binding curve vs isoproterenol (Extended Data Figure 3M): 97.96 and 100.63 and 97.15 and 96.10
Sensor, Isoproterenol 1.00E-03 M
  competition binding curve vs isoproterenol (Extended Data Figure 3M), Fit: 0.48
Sensor, Isoproterenol 1.00E-03 M, replicates 1-3 and Average
  competition binding curve vs isoproterenol (Extended Data Figure 3M): 0.69 and 0.84 and -0.72 and 0.27
Sensor, Isoproterenol 1.00E-04 M, replicates 1-3 and Average
  competition binding curve vs isoproterenol (Extended Data Figure 3M): 1.32 and 1.71 and -0.50 and 0.84
Sensor, Isoproterenol 1.00E-05 M
  competition binding curve vs isoproterenol (Extended Data Figure 3M), Fit: 5.70
Sensor, Isoproterenol 1.00E-05 M, replicates 1-3 and Average
  competition binding curve vs isoproterenol (Extended Data Figure 3M): 7.08 and 7.24 and 5.39 and 6.57
Sensor, Isoproterenol 1.00E-06 M
  competition binding curve vs isoproterenol (Extended Data Figure 3M), Fit: 30.01
Sensor, Isoproterenol 1.00E-06 M, replicates 1-3 and Average
  competition binding curve vs isoproterenol (Extended Data Figure 3M): 30.57 and 29.08 and 29.48 and 29.71
Sensor, Isoproterenol 1.00E-07 M
  competition binding curve vs isoproterenol (Extended Data Figure 3M), Fit: 74.45
Sensor, Isoproterenol 1.00E-07 M, replicates 1-3 and Average
  competition binding curve vs isoproterenol (Extended Data Figure 3M): 73.61 and 76.73 and 72.17 and 74.17
Sensor, Isoproterenol 1.00E-08 M
  competition binding curve vs isoproterenol (Extended Data Figure 3M), Fit: 96.90
Sensor, Isoproterenol 1.00E-08 M, replicates 1-3 and Average
  competition binding curve vs isoproterenol (Extended Data Figure 3M): 94.98 and 101.48 and 95.93 and 97.46
Sensor, Isoproterenol 1.00E-09 M
  competition binding curve vs isoproterenol (Extended Data Figure 3M), Fit: 100.28
Sensor, Isoproterenol 1.00E-09 M, replicates 1-3 and Average
  competition binding curve vs isoproterenol (Extended Data Figure 3M): 98.04 and 104.41 and 99.80 and 100.75
Sensor, Isoproterenol 1.00E-10 M
  competition binding curve vs isoproterenol (Extended Data Figure 3M), Fit: 100.63
Sensor, Isoproterenol 1.00E-10 M, replicates 1-3 and Average
  competition binding curve vs isoproterenol (Extended Data Figure 3M): 100.71 and 99.53 and 99.04 and 99.76
Sensor, Isoproterenol 5.00E-06 M
  competition binding curve vs isoproterenol (Extended Data Figure 3M), Fit: 10.04
Sensor, Isoproterenol 5.00E-06 M, replicates 2-3 and Average
  competition binding curve vs isoproterenol (Extended Data Figure 3M): 10.13 and 9.02 and 9.58
Sensor, Isoproterenol 5.00E-07 M
  competition binding curve vs isoproterenol (Extended Data Figure 3M), Fit: 42.59
Sensor, Isoproterenol 5.00E-07 M, replicates 2-3 and Average
  competition binding curve vs isoproterenol (Extended Data Figure 3M): 41.48 and 44.45 and 42.96
Isoproterenol 1.00E-03 M
  competition binding curve vs isoproterenol (Extended Data Figure 3L), Fit: 0.69
Isoproterenol 1.00E-03 M, replicates 1-3 and Average
  competition binding curve vs isoproterenol (Extended Data Figure 3L): 0.0116 and 0.0442 and 0.27 and -0.28
Isoproterenol 1.00E-04 M
  competition binding curve vs isoproterenol (Extended Data Figure 3L), Fit: 1.04
Isoproterenol 1.00E-04 M, replicates 1-3 and Average
  competition binding curve vs isoproterenol (Extended Data Figure 3L): 0.88 and 0.89 and 0.84 and 0.90
Isoproterenol 1.00E-05 M
  competition binding curve vs isoproterenol (Extended Data Figure 3L), Fit: 4.37
Isoproterenol 1.00E-05 M, replicates 1-3 and Average
  competition binding curve vs isoproterenol (Extended Data Figure 3L): 5.43 and 5.70 and 4.92 and 5.68
Isoproterenol 1.00E-06 M
  competition binding curve vs isoproterenol (Extended Data Figure 3L), Fit: 26.38
Isoproterenol 1.00E-06 M, replicates 1-3 and Average
  competition binding curve vs isoproterenol (Extended Data Figure 3L): 26.11 and 25.98 and 23.88 and 28.47
Isoproterenol 1.00E-07 M
  competition binding curve vs isoproterenol (Extended Data Figure 3L), Fit: 67.56
Isoproterenol 1.00E-07 M, replicates 1-3 and Average
  competition binding curve vs isoproterenol (Extended Data Figure 3L): 67.66 and 67.54 and 65.49 and 69.94
Isoproterenol 1.00E-08 M
  competition binding curve vs isoproterenol (Extended Data Figure 3L), Fit: 91.53
